Our source for the Kd and Ki values is patent US20260125375A1 (Pfizer Inc., priority 2022, published 2026).

One test deals with T1, WT CBL-B (36-427) (Homo sapiens, UniProt Q13191).
T1 construct: N-terminal biotinylated WT CBL-B (36-427) and C-CBL (46-435) were captured on a streptavidin (SA) coated sensor chip
Put plainly: Surface Plasmon Resonance (SPR) assay, binding affinity and kinetics, CBL-B. Conditions: SPR at 10° C., biotinylated WT CBL-B (36-427) on streptavidin chip; geometric mean; read-out: CBL-B SPR Kd (nM) GMean. In short, it runs like this: (§1)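 Biotinylated WT CBL-B (36-427) or C-CBL (46-435) captured on streptavidin chip (~5000–6000 RU); binding at 10° C in HEPES buffer pH 7.2 with 2% DMSO. Multi-cycle: 2-fold, 10-point series from 10 or 100 μM, 90 s association. Single-cycle: 3-fold, 6-point, 0.001–1 μM, 120 s association, >5400 s dissociation.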

For another test, the target named is T2, C-CBL (residues 46-435) (Homo sapiens, UniProt P22681).
T2 construct: Purified CBL-B (residues 36-427) and C-CBL (residues 46-435) proteins from baculovirus-infected insect cells; made in house; host or cells: baculovirus-infected insect cells
T2 sequence (P22681 46-435): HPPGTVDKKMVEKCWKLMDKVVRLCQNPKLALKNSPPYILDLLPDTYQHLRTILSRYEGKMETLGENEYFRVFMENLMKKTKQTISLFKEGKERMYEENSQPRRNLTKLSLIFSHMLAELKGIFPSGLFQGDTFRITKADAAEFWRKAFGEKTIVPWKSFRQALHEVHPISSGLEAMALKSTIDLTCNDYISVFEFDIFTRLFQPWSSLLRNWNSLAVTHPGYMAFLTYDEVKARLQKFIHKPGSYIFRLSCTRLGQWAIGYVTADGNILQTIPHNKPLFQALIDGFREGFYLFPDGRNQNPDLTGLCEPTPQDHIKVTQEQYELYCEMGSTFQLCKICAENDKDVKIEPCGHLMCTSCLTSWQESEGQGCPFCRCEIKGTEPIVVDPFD
In words: Ligand Displacement Assay (LDA), HTRF competitive binding against BODIPY-labeled fluorescent tracer, C-CBL. Conditions: geometric mean of the number of tests, read-out: C-CBL Ki (nM) GMean. In short, it runs like this:
(§2)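 Insect-cell (baculovirus) protein, N-term AviTag biotinylated via BirA, captured by SA-Tb; BODIPY tracer, KD measured per protein. 3-fold serial dilutions, duplicate, […], 2% DMSO final. Ki (nM) = geomean of runs.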

The next test addresses T3, C-CBL (46-435) (Homo sapiens, UniProt P22681).
T3 construct: N-terminal biotinylated WT CBL-B (36-427) and C-CBL (46-435) were captured on a streptavidin (SA) coated sensor chip
T3 sequence (P22681 46-435): T2 sequence (P22681 46-435)
Put plainly: Surface Plasmon Resonance (SPR) assay, binding affinity and kinetics, C-CBL. Conditions: SPR at 10° C., biotinylated C-CBL (46-435) on streptavidin chip; geometric mean; read-out: C-CBL SPR Kd (nM) GMean. In short, it runs like this: as §1

Another test has as its target T4, CBL-B (residues 36-427) (Homo sapiens, UniProt Q13191).
T4 construct: Purified CBL-B (residues 36-427) and C-CBL (residues 46-435) proteins from baculovirus-infected insect cells; made in house; host or cells: baculovirus-infected insect cells
In words: Ligand Displacement Assay (LDA), HTRF competitive binding against BODIPY-labeled fluorescent tracer, CBL-B. Conditions: geometric mean of the number of tests, read-out: CBL-B Ki (nM) GMean. Summed up:
as §2

Usually Kd stands for the constant that tells how readily two partners part at equilibrium. As a reminder, the Ki is a measure of affinity in units of concentration, obtained from inhibition or displacement. `Cn1cnnc1[C@@H](c1cccc(-c2n[nH]c3c(CN4CCCCC4)nc(C(F)(F)F)cc23)c1)C1CCC1` [Example D95]: the dissociation constant Kd came out at 6.5 nM on WT CBL-B (36-427) and 226 nM on C-CBL (46-435). Besides, the results for the inhibition constant (Ki) on C-CBL (residues 46-435) and on CBL-B (residues 36-427) were 360 nM and 40.7 nM, respectively.

Consider `Cn1cnnc1[C@@H](c1cccc(-c2n[nH]c3c(CN4CCOCC4)nc(C(F)(F)F)cc23)c1)C1CCC1` [Example D96], for which the Kd stood at 5.5 nM on WT CBL-B (36-427) and 120 nM at C-CBL (46-435). The values for the Ki on C-CBL (residues 46-435) and at CBL-B (residues 36-427) were 377 nM and 41.9 nM, respectively.

For the compound `CN1CC[C@H](Oc2nc(C(F)(F)F)cc3c(-c4cccc(C5(Cc6nncn6C)COC5)c4)n[nH]c23)C1` [Example J1, 7-{[(3S)-1-methylpyrrolidin-3-yl]oxy}-3-(3-{3-[(4-methyl-4H-1,2,4-triazol-3-yl)methyl]oxetan-3-yl}phenyl)-5-(trifluoromethyl)-1H-pyrazolo[3,4-c]pyridine], the Kd at WT CBL-B (36-427) amounted to 4.3 nM; on C-CBL (46-435), 36.7 nM. The inhibition constant (Ki) was found to be 58.1 nM on C-CBL (residues 46-435) and 13.5 nM at CBL-B (residues 36-427).

For `Cn1cnnc1CC1(c2cccc(-c3n[nH]c4c(OCCN)nc(C(F)(F)F)cc34)c2)COC1` [Example J3, 2-{[3-(3-{3-[(4-methyl-4H-1,2,4-triazol-3-yl)methyl]oxetan-3-yl}phenyl)-5-(trifluoromethyl)-1H-pyrazolo[3,4-c]pyridin-7-yl]oxy}ethan-1-amine], the dissociation constant Kd on WT CBL-B (36-427) came to 3.2 nM; at C-CBL (46-435), 53.6 nM. Also, the Ki was 76.3 nM on C-CBL (residues 46-435) and 16.7 nM at CBL-B (residues 36-427).

`CN1CC[C@@H](Oc2nc(C(F)(F)F)cc3c(-c4cccc([C@H](c5nncn5C)C5CCC5)c4)n[nH]c23)C1` [Example J4, 3-{3-[(R)-cyclobutyl(4-methyl-4H-1,2,4-triazol-3-yl)methyl]phenyl}-7-{[(3R)-1-methylpyrrolidin-3-yl]oxy}-5-(trifluoromethyl)-1H-pyrazolo[3,4-c]pyridine]: the dissociation constant Kd amounted to 3.7 nM on WT CBL-B (36-427) and 145 nM at C-CBL (46-435). Besides, the Ki on C-CBL (residues 46-435) came out at 83.6 nM; on CBL-B (residues 36-427), 9.2 nM.

Regarding `CN1CC[C@H](Oc2nc(C(F)(F)F)cc3c(-c4cccc([C@H](c5nncn5C)C5CCC5)c4)n[nH]c23)C1` [Example J5, 3-{3-[(R)-cyclobutyl(4-methyl-4H-1,2,4-triazol-3-yl)methyl]phenyl}-7-{[(3S)-1-methylpyrrolidin-3-yl]oxy}-5-(trifluoromethyl)-1H-pyrazolo[3,4-c]pyridine], the Kd at WT CBL-B (36-427) was determined as 3.3 nM; on C-CBL (46-435) it was 137 nM. Also, the inhibition constant Ki at C-CBL (residues 46-435) came to 87.1 nM; at CBL-B (residues 36-427) it was 10 nM.

Consider `CNc1nc(C(F)(F)F)cc2c(-c3cccc(C4(Cc5nncn5C)COC4)c3)n[nH]c12` [Example J8, N-methyl-3-(3-{3-[(4-methyl-4H-1,2,4-triazol-3-yl)methyl]oxetan-3-yl}phenyl)-5-(trifluoromethyl)-1H-pyrazolo[3,4-c]pyridin-7-amine], for which the Kd on WT CBL-B (36-427) turned out to be 16.1 nM; on C-CBL (46-435) it was 136 nM. The inhibition constant Ki amounted to 251 nM on C-CBL (residues 46-435) and 69.3 nM at CBL-B (residues 36-427).

For `CN(C)c1nc(C(F)(F)F)cc2c(-c3cccc(C4(Cc5nncn5C)COC4)c3)n[nH]c12` [Example J9, N,N-dimethyl-3-(3-{3-[(4-methyl-4H-1,2,4-triazol-3-yl)methyl]oxetan-3-yl}phenyl)-5-(trifluoromethyl)-1H-pyrazolo[3,4-c]pyridin-7-amine], the equilibrium dissociation constant (Kd) on WT CBL-B (36-427) is 30.1 nM; at C-CBL (46-435), 244 nM. Further, the Ki was found to be 228 nM on C-CBL (residues 46-435) and 92.2 nM at CBL-B (residues 36-427).

With `COc1nc(C(F)(F)F)cc2c(-c3cccc(C4(Cc5nncn5C)COC4)c3)n[nH]c12` [Example J10, 7-methoxy-3-(3-{3-[(4-methyl-4H-1,2,4-triazol-3-yl)methyl]oxetan-3-yl}phenyl)-5-(trifluoromethyl)-1H-pyrazolo[3,4-c]pyridine], the Kd at WT CBL-B (36-427) is 21.4 nM; at C-CBL (46-435), 178 nM. Besides, the inhibitory constant (Ki) was 91.9 nM at C-CBL (residues 46-435) and 25.1 nM at CBL-B (residues 36-427).

For `CN1CC[C@@H](N(C)c2nc(C(F)(F)F)cc3c(-c4cccc([C@H](c5nncn5C)C5CCC5)c4)n[nH]c23)C1` [Example J11, 3-{3-[(R)-cyclobutyl(4-methyl-4H-1,2,4-triazol-3-yl)methyl]phenyl}-N-methyl-N-[(3R)-1-methylpyrrolidin-3-yl]-5-(trifluoromethyl)-1H-pyrazolo[3,4-c]pyridin-7-amine], the figures for the Kd on WT CBL-B (36-427) and at C-CBL (46-435) were 24 nM and 393 nM, respectively. In addition, the Ki on C-CBL (residues 46-435) worked out at 275 nM; at CBL-B (residues 36-427) it was 41.6 nM.

As to `CN1CC[C@H](N(C)c2nc(C(F)(F)F)cc3c(-c4cccc([C@H](c5nncn5C)C5CCC5)c4)n[nH]c23)C1` [Example J12, 3-{3-[(R)-cyclobutyl(4-methyl-4H-1,2,4-triazol-3-yl)methyl]phenyl}-N-methyl-N-[(3S)-1-methylpyrrolidin-3-yl]-5-(trifluoromethyl)-1H-pyrazolo[3,4-c]pyridin-7-amine], the dissociation constant Kd on WT CBL-B (36-427) amounted to 16.1 nM; on C-CBL (46-435), 240 nM. Also, the Ki was determined as 118 nM at C-CBL (residues 46-435) and 16.1 nM at CBL-B (residues 36-427).

Take `Cn1cnnc1CC1(c2cccc(-c3n[nH]c4c(CCN)nc(C(F)(F)F)cc34)c2)COC1` [Example K5, 2-[3-(3-{3-[(4-methyl-4H-1,2,4-triazol-3-yl)methyl]oxetan-3-yl}phenyl)-5-(trifluoromethyl)-1H-pyrazolo[3,4-c]pyridin-7-yl]ethan-1-amine]: the Kd at WT CBL-B (36-427) was 23.6 nM; at C-CBL (46-435), 221 nM. The Ki came out at 199 nM on C-CBL (residues 46-435) and 55.3 nM on CBL-B (residues 36-427).

With `Cn1cnnc1[C@@H](c1cccc(-c2n[nH]c3c(CO)nc(C(F)(F)F)cc23)c1)C1CCC1` [Example K9, [3-{3-[(R)-cyclobutyl(4-methyl-4H-1,2,4-triazol-3-yl)methyl]phenyl}-5-(trifluoromethyl)-1H-pyrazolo[3,4-c]pyridin-7-yl]methanol], the Kd at WT CBL-B (36-427) is 12.7 nM; at C-CBL (46-435), 298 nM. The Ki at C-CBL (residues 46-435) was found to be 328 nM; at CBL-B (residues 36-427), 45.4 nM.

Regarding `C[C@@H](N)c1nc(C(F)(F)F)cc2c(-c3cccc([C@H](c4nncn4C)C4CCC4)c3)n[nH]c12` [Example K13, (1R)-1-[3-{3-[(R)-cyclobutyl(4-methyl-4H-1,2,4-triazol-3-yl)methyl]phenyl}-5-(trifluoromethyl)-1H-pyrazolo[3,4-c]pyridin-7-yl]ethan-1-amine], the dissociation constant Kd on WT CBL-B (36-427) came out at 12.1 nM; at C-CBL (46-435), 285 nM. Further, the results for the Ki at C-CBL (residues 46-435) and at CBL-B (residues 36-427) were 215 nM and 27 nM, respectively.

As to `C[C@H](Cc1nncn1C)c1cccc(-c2n[nH]c3cnc(C(F)(F)F)cc23)c1` [Example N1, 3-{3-[(2R)-1-(4-methyl-4H-1,2,4-triazol-3-yl)propan-2-yl]phenyl}-5-(trifluoromethyl)-1H-pyrazolo[3,4-c]pyridine], the values for the Kd on WT CBL-B (36-427) and at C-CBL (46-435) were 35.8 nM and 275 nM, respectively. Also, the Ki was determined as 249 nM at C-CBL (residues 46-435) and 70 nM on CBL-B (residues 36-427).
